Tests used:
[1] = target: T1, HiBit-BRM fusion protein (Homo sapiens, UniProt P51531); test: HiBiT-BRM cell-based degradation assay (Nano-Glo HiBiT Lytic Detection, 24 h); settings: HeLa cell line expressing HiBiT-BRM
T1 construct: expressed in transfected cells
Method in brief: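 Luminescence from reconstituted NanoBiT luciferase in lysed HeLa HiBiT-BRM cells served as the measure of remaining BRM after 24 h treatment. Compounds were tested from 30 μM final downward in 3-fold steps. DMSO and 2 μM of a standard BRM/BRG1 degrader defined the scale limits.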

[2] = target: T2, HiBit-BRG1 fusion protein (Homo sapiens, UniProt P51532); test: HiBiT-BRG1 cell-based degradation assay (Nano-Glo HiBiT Lytic Detection, 24 h); settings: HeLa cell line expressing HiBit-BRG1 and LgBit; for Dmax: read-out: BRG1 HiBit Degradation Maximum (%)
T2 construct: expressed in transfected cells
Method in brief: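 Seed 5000 HeLa HiBit-BRG1/LgBit cells per well; treat 24 h; equilibrate 15 min at room temperature; add Nano-Glo HiBiT lytic reagent, shake 10 min, read luminescence. Percent degradation is scaled between DMSO and 2 μM reference degrader wells.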

T2 sequence (P51532 whole entry, the tested form may be a part): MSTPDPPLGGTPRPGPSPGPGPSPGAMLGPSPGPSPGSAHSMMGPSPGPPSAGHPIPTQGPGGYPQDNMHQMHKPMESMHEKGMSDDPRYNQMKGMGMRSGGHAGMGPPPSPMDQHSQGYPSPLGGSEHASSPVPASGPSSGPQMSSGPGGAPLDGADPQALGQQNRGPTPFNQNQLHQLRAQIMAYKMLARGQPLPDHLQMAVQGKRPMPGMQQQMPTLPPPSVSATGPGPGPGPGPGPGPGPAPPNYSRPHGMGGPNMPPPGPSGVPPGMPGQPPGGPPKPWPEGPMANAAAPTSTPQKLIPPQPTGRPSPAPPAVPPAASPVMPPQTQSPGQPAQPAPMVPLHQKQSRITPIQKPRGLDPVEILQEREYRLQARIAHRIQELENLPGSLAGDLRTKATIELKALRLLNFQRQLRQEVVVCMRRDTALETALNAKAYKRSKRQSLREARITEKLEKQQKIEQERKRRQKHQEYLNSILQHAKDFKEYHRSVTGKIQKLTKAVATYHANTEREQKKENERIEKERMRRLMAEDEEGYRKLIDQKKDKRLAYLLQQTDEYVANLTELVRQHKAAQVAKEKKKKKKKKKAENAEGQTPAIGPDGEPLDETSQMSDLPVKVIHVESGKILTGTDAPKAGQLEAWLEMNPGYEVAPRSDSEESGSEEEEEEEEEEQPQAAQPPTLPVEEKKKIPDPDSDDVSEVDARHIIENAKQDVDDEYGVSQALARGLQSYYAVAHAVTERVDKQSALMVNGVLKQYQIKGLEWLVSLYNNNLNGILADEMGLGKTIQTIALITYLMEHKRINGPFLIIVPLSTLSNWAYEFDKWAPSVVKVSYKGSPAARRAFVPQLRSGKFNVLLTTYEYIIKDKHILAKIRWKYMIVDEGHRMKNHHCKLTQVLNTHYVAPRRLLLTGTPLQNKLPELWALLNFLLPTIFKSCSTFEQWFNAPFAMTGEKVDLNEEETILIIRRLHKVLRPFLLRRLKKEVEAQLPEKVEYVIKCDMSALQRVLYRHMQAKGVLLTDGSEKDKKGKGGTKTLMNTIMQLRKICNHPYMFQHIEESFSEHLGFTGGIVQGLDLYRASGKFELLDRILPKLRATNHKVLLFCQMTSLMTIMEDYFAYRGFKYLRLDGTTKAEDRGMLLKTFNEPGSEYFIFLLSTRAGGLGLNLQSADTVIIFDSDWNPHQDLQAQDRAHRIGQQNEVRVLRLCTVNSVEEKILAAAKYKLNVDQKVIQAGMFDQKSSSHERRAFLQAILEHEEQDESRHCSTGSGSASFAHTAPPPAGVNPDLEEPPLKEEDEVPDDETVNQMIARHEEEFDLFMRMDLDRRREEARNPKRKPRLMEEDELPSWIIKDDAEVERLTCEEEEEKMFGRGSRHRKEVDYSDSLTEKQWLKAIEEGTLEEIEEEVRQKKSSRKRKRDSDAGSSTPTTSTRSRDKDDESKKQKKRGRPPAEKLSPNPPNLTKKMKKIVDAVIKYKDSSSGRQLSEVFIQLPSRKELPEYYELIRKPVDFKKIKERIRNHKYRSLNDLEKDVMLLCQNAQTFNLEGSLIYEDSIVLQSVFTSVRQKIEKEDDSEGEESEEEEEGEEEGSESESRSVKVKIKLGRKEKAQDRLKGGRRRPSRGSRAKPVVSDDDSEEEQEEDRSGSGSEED
T1 sequence (P51531 whole entry, the tested form may be a part): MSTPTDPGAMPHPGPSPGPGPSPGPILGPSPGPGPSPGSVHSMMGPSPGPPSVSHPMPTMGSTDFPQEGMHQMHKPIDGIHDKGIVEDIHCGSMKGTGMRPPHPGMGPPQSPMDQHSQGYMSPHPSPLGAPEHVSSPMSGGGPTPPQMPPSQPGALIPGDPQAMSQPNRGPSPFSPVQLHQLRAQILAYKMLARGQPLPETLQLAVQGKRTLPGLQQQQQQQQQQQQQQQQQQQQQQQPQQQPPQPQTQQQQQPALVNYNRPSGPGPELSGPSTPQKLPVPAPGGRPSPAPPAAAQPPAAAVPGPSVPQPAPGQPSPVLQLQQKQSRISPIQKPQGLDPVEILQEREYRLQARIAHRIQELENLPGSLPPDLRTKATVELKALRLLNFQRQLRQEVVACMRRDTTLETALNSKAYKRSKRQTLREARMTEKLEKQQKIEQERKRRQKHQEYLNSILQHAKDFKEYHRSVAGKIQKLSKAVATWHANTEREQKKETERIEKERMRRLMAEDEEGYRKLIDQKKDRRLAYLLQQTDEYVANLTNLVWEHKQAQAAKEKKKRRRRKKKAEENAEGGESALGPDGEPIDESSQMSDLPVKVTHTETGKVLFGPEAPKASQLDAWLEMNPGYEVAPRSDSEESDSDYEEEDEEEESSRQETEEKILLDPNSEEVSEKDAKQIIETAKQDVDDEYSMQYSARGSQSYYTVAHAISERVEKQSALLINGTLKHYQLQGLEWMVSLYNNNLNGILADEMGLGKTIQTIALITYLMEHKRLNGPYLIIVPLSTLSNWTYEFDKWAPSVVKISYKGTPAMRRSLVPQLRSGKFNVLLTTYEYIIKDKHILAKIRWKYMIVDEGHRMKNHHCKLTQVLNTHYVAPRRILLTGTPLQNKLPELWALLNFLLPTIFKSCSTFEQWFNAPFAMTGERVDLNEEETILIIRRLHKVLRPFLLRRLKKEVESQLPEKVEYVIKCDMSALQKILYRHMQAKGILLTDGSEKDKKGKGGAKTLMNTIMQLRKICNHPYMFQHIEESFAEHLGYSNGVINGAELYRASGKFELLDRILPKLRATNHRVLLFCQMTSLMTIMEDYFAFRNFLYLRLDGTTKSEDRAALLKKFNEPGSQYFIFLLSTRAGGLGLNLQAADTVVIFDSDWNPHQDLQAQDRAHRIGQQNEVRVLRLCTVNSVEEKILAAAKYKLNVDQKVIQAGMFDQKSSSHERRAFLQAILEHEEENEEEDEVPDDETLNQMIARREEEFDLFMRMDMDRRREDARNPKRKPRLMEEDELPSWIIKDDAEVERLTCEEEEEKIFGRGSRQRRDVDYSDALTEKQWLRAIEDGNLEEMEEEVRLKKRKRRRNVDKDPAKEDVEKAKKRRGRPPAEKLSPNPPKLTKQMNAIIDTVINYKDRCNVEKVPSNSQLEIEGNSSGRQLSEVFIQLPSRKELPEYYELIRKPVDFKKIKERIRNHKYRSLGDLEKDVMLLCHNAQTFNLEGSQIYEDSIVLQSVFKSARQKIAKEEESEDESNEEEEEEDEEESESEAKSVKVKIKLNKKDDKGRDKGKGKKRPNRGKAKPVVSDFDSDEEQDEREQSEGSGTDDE

Cc1ncsc1-c1ccc(CNC(=O)[C@@H]2C[C@@H](O)CN2C(=O)[C@@H](NC(=O)CCN2CC(c3c[nH]c4nnc(-c5ccccc5O)cc34)C2)C(C)(C)C)cc1 [Compound 35, (2S,4R)-4-hydroxy-1-((S)-2-(3-(3-(3-(2-hydroxyphenyl)-7H-pyrrolo[2,3-c]pyridazin-5-yl)azetidin-1-yl)propanamido)-3,3-dimethylbutanoyl)-N-(4-(4-methylthiazol-5-yl)benzyl)pyrrolidine-2-carboxamide]
BRM HiBit Degradation Maximum (%) [1]: C (“C” indicates maximum degradation < 50%)
Dmax [2]: < 50%

Cc1ncsc1-c1ccc(CNC(=O)[C@@H]2C[C@@H](O)CN2C(=O)[C@@H](NC(=O)CCCCCCCC(=O)N2CC(c3c[nH]c4nnc(-c5ccccc5O)cc34)C2)C(C)(C)C)cc1 [Compound 36, (2S,4R)-4-hydroxy-1-((S)-2-(9-(3-(3-(2-hydroxyphenyl)-7H-pyrrolo[2,3-c]pyridazin-5-yl)azetidin-1-yl)-9-oxononanamido)-3,3-dimethylbutanoyl)-N-(4-(4-methylthiazol-5-yl)benzyl)pyrrolidine-2-carboxamide]
BRM HiBit Degradation Maximum (%) [1]: C (“C” indicates maximum degradation < 50%)
Dmax [2]: < 50%

Cc1ncsc1-c1ccc(CNC(=O)[C@@H]2C[C@@H](O)CN2C(=O)[C@@H](NC(=O)CCCCCCCCCC(=O)N2CC(c3c[nH]c4nnc(-c5ccccc5O)cc34)C2)C(C)(C)C)cc1 [Compound 37, (2S,4R)-4-hydroxy-1-((S)-2-(11-(3-(3-(2-hydroxyphenyl)-7H-pyrrolo[2,3-c]pyridazin-5-yl)azetidin-1-yl)-11-oxoundecanamido)-3,3-dimethylbutanoyl)-N-(4-(4-methylthiazol-5-yl)benzyl)pyrrolidine-2-carboxamide]
BRM HiBit Degradation Maximum (%) [1]: C (“C” indicates maximum degradation < 50%)
Dmax [2]: < 50%

Cc1ncsc1-c1ccc(CNC(=O)[C@@H]2C[C@@H](O)CN2C(=O)[C@@H](NC(=O)CCCCCCCCCCCCCCCCC(=O)N2CC(c3c[nH]c4nnc(-c5ccccc5O)cc34)C2)C(C)(C)C)cc1 [Compound 38, (2S,4R)-4-hydroxy-1-((S)-2-(18-(3-(3-(2-hydroxyphenyl)-7H-pyrrolo[2,3-c]pyridazin-5-yl)azetidin-1-yl)-18-oxooctadecanamido)-3,3-dimethylbutanoyl)-N-(4-(4-methylthiazol-5-yl)benzyl)pyrrolidine-2-carboxamide]
BRM HiBit Degradation Maximum (%) [1]: C (“C” indicates maximum degradation < 50%)
Dmax [2]: < 50%

Cc1ncsc1-c1ccc(CNC(=O)[C@@H]2C[C@@H](O)CN2C(=O)[C@@H](NC(=O)CCCCCCCCCCCCCC(=O)N2CC(c3c[nH]c4nnc(-c5ccccc5O)cc34)C2)C(C)(C)C)cc1 [Compound 39, (2S,4R)-4-hydroxy-1-((S)-2-(15-(3-(3-(2-hydroxyphenyl)-7H-pyrrolo[2,3-c]pyridazin-5-yl)azetidin-1-yl)-15-oxopentadecanamido)-3,3-dimethylbutanoyl)-N-(4-(4-methylthiazol-5-yl)benzyl)pyrrolidine-2-carboxamide]
BRM HiBit Degradation Maximum (%) [1]: C (“C” indicates maximum degradation < 50%)
Dmax [2]: < 50%

Cc1ncsc1-c1ccc(CNC(=O)[C@@H]2C[C@@H](O)CN2C(=O)[C@@H](NC(=O)CCCC(=O)N2CC(c3c[nH]c4nnc(-c5ccccc5O)cc34)C2)C(C)(C)C)cc1 [Compound 40, (2S,4R)-4-hydroxy-1-((S)-2-(5-(3-(3-(2-hydroxyphenyl)-7H-pyrrolo[2,3-c]pyridazin-5-yl)azetidin-1-yl)-5-oxopentanamido)-3,3-dimethylbutanoyl)-N-(4-(4-methylthiazol-5-yl)benzyl)pyrrolidine-2-carboxamide]
BRM HiBit Degradation Maximum (%) [1]: C (“C” indicates maximum degradation < 50%)
Dmax [2]: < 50%

Cc1ncsc1-c1ccc(CNC(=O)[C@@H]2C[C@@H](O)CN2C(=O)[C@@H](NC(=O)CCCCCCCCCCCCCCC(=O)N2CC(c3c[nH]c4nnc(-c5ccccc5O)cc34)C2)C(C)(C)C)cc1 [Compound 41, (2S,4R)-4-hydroxy-1-((S)-2-(16-(3-(3-(2-hydroxyphenyl)-7H-pyrrolo[2,3-c]pyridazin-5-yl)azetidin-1-yl)-16-oxohexadecanamido)-3,3-dimethylbutanoyl)-N-(4-(4-methylthiazol-5-yl)benzyl)pyrrolidine-2-carboxamide]
BRM HiBit Degradation Maximum (%) [1]: C (“C” indicates maximum degradation < 50%)
Dmax [2]: < 50%

Cc1ncsc1-c1ccc(CNC(=O)[C@@H]2C[C@@H](O)CN2C(=O)[C@@H](NC(=O)CCCCCCCCCCCCCCCC(=O)N2CC(c3c[nH]c4nnc(-c5ccccc5O)cc34)C2)C(C)(C)C)cc1 [Compound 42, (2S,4R)-4-hydroxy-1-((S)-2-(17-(3-(3-(2-hydroxyphenyl)-7H-pyrrolo[2,3-c]pyridazin-5-yl)azetidin-1-yl)-17-oxoheptadecanamido)-3,3-dimethylbutanoyl)-N-(4-(4-methylthiazol-5-yl)benzyl)pyrrolidine-2-carboxamide]
BRM HiBit Degradation Maximum (%) [1]: C (“C” indicates maximum degradation < 50%)
Dmax [2]: < 50%

Cc1ncsc1-c1ccc(CNC(=O)[C@@H]2C[C@@H](O)CN2C(=O)[C@@H](NC(=O)CCCCCCCCC(=O)N2CC(c3c[nH]c4nnc(-c5ccccc5O)cc34)C2)C(C)(C)C)cc1 [Compound 43, (2S,4R)-4-hydroxy-1-((S)-2-(10-(3-(3-(2-hydroxyphenyl)-7H-pyrrolo[2,3-c]pyridazin-5-yl)azetidin-1-yl)-10-oxodecanamido)-3,3-dimethylbutanoyl)-N-(4-(4-methylthiazol-5-yl)benzyl)pyrrolidine-2-carboxamide]
BRM HiBit Degradation Maximum (%) [1]: C (“C” indicates maximum degradation < 50%)
Dmax [2]: < 50%

Cc1ncsc1-c1ccc(CNC(=O)[C@@H]2C[C@@H](O)CN2C(=O)[C@@H](NC(=O)CCCCCCCCCCCCC(=O)N2CC(c3c[nH]c4nnc(-c5ccccc5O)cc34)C2)C(C)(C)C)cc1 [Compound 44, (2S,4R)-4-hydroxy-1-((S)-2-(14-(3-(3-(2-hydroxyphenyl)-7H-pyrrolo[2,3-c]pyridazin-5-yl)azetidin-1-yl)-14-oxotetradecanamido)-3,3-dimethylbutanoyl)-N-(4-(4-methylthiazol-5-yl)benzyl)pyrrolidine-2-carboxamide]
BRM HiBit Degradation Maximum (%) [1]: C (“C” indicates maximum degradation < 50%)
Dmax [2]: < 50%

Cc1ncsc1-c1ccc(CNC(=O)[C@@H]2C[C@@H](O)CN2C(=O)[C@@H](NC(=O)CCCCCCC(=O)N2CC(c3c[nH]c4nnc(-c5ccccc5O)cc34)C2)C(C)(C)C)cc1 [Compound 45, (2S,4R)-4-hydroxy-1-((S)-2-(8-(3-(3-(2-hydroxyphenyl)-7H-pyrrolo[2,3-c]pyridazin-5-yl)azetidin-1-yl)-8-oxooctanamido)-3,3-dimethylbutanoyl)-N-(4-(4-methylthiazol-5-yl)benzyl)pyrrolidine-2-carboxamide]
BRM HiBit Degradation Maximum (%) [1]: C (“C” indicates maximum degradation < 50%)
Dmax [2]: < 50%

Cc1ncsc1-c1ccc(CNC(=O)[C@@H]2C[C@@H](O)CN2C(=O)[C@@H](NC(=O)CCCCCCCCCCC(=O)N2CC(c3c[nH]c4nnc(-c5ccccc5O)cc34)C2)C(C)(C)C)cc1 [Compound 46, (2S,4R)-4-hydroxy-1-((S)-2-(12-(3-(3-(2-hydroxyphenyl)-7H-pyrrolo[2,3-c]pyridazin-5-yl)azetidin-1-yl)-12-oxododecanamido)-3,3-dimethylbutanoyl)-N-(4-(4-methylthiazol-5-yl)benzyl)pyrrolidine-2-carboxamide]
BRM HiBit Degradation Maximum (%) [1]: C (“C” indicates maximum degradation < 50%)
Dmax [2]: < 50%

Cc1ncsc1-c1ccc(CNC(=O)[C@@H]2C[C@@H](O)CN2C(=O)[C@@H](NC(=O)CCCCC(=O)N2CC(c3c[nH]c4nnc(-c5ccccc5O)cc34)C2)C(C)(C)C)cc1 [Compound 47, (2S,4R)-4-hydroxy-1-((S)-2-(6-(3-(3-(2-hydroxyphenyl)-7H-pyrrolo[2,3-c]pyridazin-5-yl)azetidin-1-yl)-6-oxohexanamido)-3,3-dimethylbutanoyl)-N-(4-(4-methylthiazol-5-yl)benzyl)pyrrolidine-2-carboxamide]
BRM HiBit Degradation Maximum (%) [1]: C (“C” indicates maximum degradation < 50%)
Dmax [2]: < 50%

Cc1ncsc1-c1ccc([C@H](C)NC(=O)[C@@H]2C[C@@H](O)CN2C(=O)[C@@H](c2cc(N3CCN(C(=O)[C@H]4C[C@]5(Cc6cc(-c7ccccc7O)nnc6N5)C4)CC3)no2)C(C)C)cc1 [Compound 77, (2S,4R)-4-hydroxy-1-((R)-2-(3-(4-((1S,3r)-3′-(2-hydroxyphenyl)-5′,7′-dihydrospiro[cyclobutane-1,6′-pyrrolo[2,3-c]pyridazine]-3-carbonyl)piperazin-1-yl)isoxazol-5-yl)-3-methylbutanoyl)-N-((S)-1-(4-(4-methylthiazol-5-yl)phenyl)ethyl)pyrrolidine-2-carboxamide]
BRM HiBit Degradation Maximum (%) [1]: A (“A” indicates maximum degradation ≥ 75%)
IC50 [1]: > 10 nM
BRG1 HiBit Degradation Maximum (%) [2]: A (“A” indicates maximum degradation ≥ 75%)
IC50 ([2]; read-out: BRMG1 HiBit Degradation IC50): > 100 nM

From patent US20240024488A1, “COMPOUNDS AND USES THEREOF” (Foghorn Therapeutics Inc., priority 2020, published 2024)
